Experimental data: PMC8151276, “An Integrated Approach toward NanoBRET Tracers for Analysis of GPCR Ligand Engagement” (Molecules, 2021)

Columns and labels:
BDKRB2 = biological target: T1, BDKRB2 (Homo sapiens, UniProt P30411); assay: NanoBRET screen HiBiT-BDKRB2 in HEK293; format: binding
T1 construct: purchased Promega (in-house HiBiT-GPCR construct library, NanoBRET)
T1 sequence (P30411 1-391): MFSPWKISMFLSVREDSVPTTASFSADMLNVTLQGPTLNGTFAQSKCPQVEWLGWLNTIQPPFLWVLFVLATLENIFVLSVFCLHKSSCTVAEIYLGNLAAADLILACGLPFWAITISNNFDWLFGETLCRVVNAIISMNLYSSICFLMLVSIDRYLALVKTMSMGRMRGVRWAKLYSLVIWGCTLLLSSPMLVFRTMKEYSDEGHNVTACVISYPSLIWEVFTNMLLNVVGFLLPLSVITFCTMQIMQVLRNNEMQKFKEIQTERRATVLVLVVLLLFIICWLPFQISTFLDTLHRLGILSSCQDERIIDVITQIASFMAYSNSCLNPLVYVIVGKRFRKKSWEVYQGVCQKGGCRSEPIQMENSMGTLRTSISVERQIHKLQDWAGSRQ
Description: (§1) Each tracer candidate was screened across the entire library of HiBiT-GPCR constructs using NanoBRET as the detection modality. As depicted in Figure 4A, the specificity of interactions was evaluated through decrease in BRET due to competitive displacement of a bound tracer by excess parental compound. Each tracer was analyzed for binding to each HiBiT-GPCR fusion in the absence and in the presence of competing parental compound. Briefly, HEK293 cells were transfected with HiBiT-GPCR constructs diluted into promoterless DNA to reduce expression and maximize translocation to the cell surface. Each tracer candidate was then screened at concentrations of 1 μM and 0.1 μM across cells expressing these fusions. Cells were treated for 1.5 h with tracer either alone or in the presence of 20 μM competing parental compound (i.e., control). BRET was measured upon addition of purified LgBiT and subsequent complementation with HiBiT genetically fused to a GPCR. The specificity of interactions was assessed through a decrease in BRET signal due to competitive displacement of the bound tracer. To further gauge the robustness of these interactions, the fold response over the control (i.e., BRETtracer/BRETcontrol) was calculated. We chose a 1.5-fold response, which translates to ≥7-fold signal over noise as the minimal threshold required to score an interaction as positive. […]. Below we highlight the screening results obtained for our exemplary fluorescent tracers based on Clozapine, Amitriptyline and AZD1283.
(§2) HiBiT-GPCR DNA constructs were diluted in 10 mM Tris pH 8 to a final concentration of 0.01 μg/μL, arrayed in 96-well plates and stored at −20 °C. For transfection, HEK293 cells were suspended in Opti-MEM (without phenol red) supplemented with 2% fetal bovine serum (Seradigm) and 100 units/mL penicillin–streptomycin (Gibco) at a final concentration of 220,000 cells/mL and dispensed into white 96-well plates at 90 μL/well. Subsequent transfections and screens were carried using an Agilent Bravo Automated Liquid Handling Platform. First, the 96-well HiBiT DNA arrays were diluted 25-fold in Opti-MEM (without serum or phenol red) to a final concentration of 0.0004 μg/μL and 20 μL of the diluted DNAs were transferred into new 96-well plates. Next, promoterless carrier DNA (1 μg/μL) was diluted 25-fold (0.04 μg/μL) and then dispensed into the diluted arrays at 20 μL/well. Following brief mixing, Viafect transfection reagent (Promega) diluted 16-fold into Opti-MEM was dispensed into the plates at 40 μL/well. After mixing by pipetting, plates were incubated for 10 min on the pipetting station deck. The DNA-transfection reagent complexes were then added to plates containing cells. To facilitate the screen, 10 μL of DNA-transfection reagent complexes were added in duplicates to the top 4 and bottom 4 rows, resulting in two identical 48-well arrays per plate. Plates with transfected cells were incubated for 18–20 h at 37 °C/5% CO2. A screen of each tracer across the entire library using two different concentrations requires duplicate plates of transfected cells. Depending on the number of tracers being screened, transfections can be scaled up using the same ratios. The next day, for each tracer, four 20× screening solutions in tracer dilution buffer (Promega) were prepared: two duplicates at final concentration of 20 μM and two duplicates at a final concentration of 2 μM. A competing unmodified compound was added to one of each duplicate at a final concentration of 400 μM. The four resulting solutions were diluted 4-fold in Opti-MEM without serum or phenol red to generate 5× solutions (5 µM and 0.5 µM tracer +/− 100 μM competing compound). To screen the library, a BioTek MultiFlo FX liquid dispenser was used to dispense 22.5 µL of tracer solution to the top 4 rows and 22.5 µL tracer + competing compound solution to the 4 bottom rows. Plates were briefly mixed on an orbital shaker and incubated for 1.5 h at room temperature. […]

FZD4 = biological target: T2, FZD4 (Homo sapiens, UniProt Q9ULV1); assay: NanoBRET screen HiBiT-FZD4 in HEK293; format: binding
T2 construct: purchased Promega (in-house HiBiT-GPCR construct library, NanoBRET)
T2 sequence (Q9ULV1 37-537): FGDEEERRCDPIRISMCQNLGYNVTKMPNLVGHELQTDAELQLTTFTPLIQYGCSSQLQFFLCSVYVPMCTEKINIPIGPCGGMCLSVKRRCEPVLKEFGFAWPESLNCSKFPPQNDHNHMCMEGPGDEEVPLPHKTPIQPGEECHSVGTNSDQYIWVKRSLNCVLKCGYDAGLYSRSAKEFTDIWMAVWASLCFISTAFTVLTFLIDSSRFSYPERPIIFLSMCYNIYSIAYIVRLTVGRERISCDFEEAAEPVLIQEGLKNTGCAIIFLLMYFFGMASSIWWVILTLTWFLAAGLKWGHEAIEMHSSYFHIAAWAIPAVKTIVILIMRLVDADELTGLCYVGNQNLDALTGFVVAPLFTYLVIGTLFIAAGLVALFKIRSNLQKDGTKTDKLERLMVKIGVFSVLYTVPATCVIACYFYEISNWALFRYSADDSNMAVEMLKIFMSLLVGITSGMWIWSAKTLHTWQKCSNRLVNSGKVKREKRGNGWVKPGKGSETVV
Description: as §1, §2

[1] = tracer at 0.1μM, listed as amitriptyline-b-2-NB590
[2] = tracer at 1μM, listed as amitriptyline-b-2-NB590

CCOC(=O)c1cc(C#N)c(N2CCC(C(=O)NS(=O)(=O)Cc3ccccc3/C=C/C(=O)NCCNC(=O)CCc3ccc4n3[B-](F)(F)[N+]3=C(c5ccc[nH]5)C=CC3=C4)CC2)nc1C [AZD1283-1-NB590]
NanoBRET Fold Response (BDKRB2; BDKRB2, 0.1μM): 1.06 | NanoBRET Fold Response (BDKRB2; BDKRB2, 1μM): 1.04 | NanoBRET Fold Response (FZD4; FZD4, 0.1μM): 1.03 | NanoBRET Fold Response (FZD4; FZD4, 1μM): 1.03

N#CN=C(NCCCOc1cccc(CN2CCCCC2)c1)NCCNC(=O)CCOCCOCCOCCOCCNC(=O)CCc1ccc2n1[B-](F)(F)[N+]1=C(c3ccc[nH]3)C=CC1=C2 [Aminopotentidine-2-NB590]
NanoBRET Fold Response (BDKRB2; BDKRB2, tracer 0.1μM): 1.00 | NanoBRET Fold Response (BDKRB2; BDKRB2, tracer 1μM): 1.01 | NanoBRET Fold Response (FZD4; FZD4, tracer 0.1μM): 0.98 | NanoBRET Fold Response (FZD4; FZD4, tracer 1μM): 1.07

CN(C)CCC=C1c2ccccc2CCc2ccc(C(=O)NCCNC(=O)CCOCCOCCOCCOCCNC(=O)CCc3ccc4n3[B-](F)(F)[N+]3=C(c5ccc[nH]5)C=CC3=C4)cc21 [Amitriptyline-a-2-NB590]
NanoBRET Fold Response (BDKRB2; tracer at 0.1μM): 1.01 | NanoBRET Fold Response (BDKRB2; tracer at 1μM): 1.04 | NanoBRET Fold Response (FZD4; tracer at 0.1μM): 1.01 | NanoBRET Fold Response (FZD4; tracer at 1μM): 1.01

CN(C)CCC=C1c2ccccc2CCc2ccc(C(=O)NCCNC(=O)CCOCCOCCOCCOCCNC(=O)CCc3ccc4n3[B-](F)(F)[N+]3=C(c5ccc[nH]5)C=CC3=C4)cc21 [Amitriptyline-b-2-NB590]
NanoBRET Fold Response (BDKRB2; [1]): 1.05 | NanoBRET Fold Response (BDKRB2; [2]): 1.12 | NanoBRET Fold Response (FZD4; [1]): 1.12 | NanoBRET Fold Response (FZD4; [2]): 1.19

CN(CCC=C1c2ccccc2CCc2ccccc21)C(=O)CCOCCOCCOCCOCCNC(=O)CCc1ccc2n1[B-](F)(F)[N+]1=C(c3ccc[nH]3)C=CC1=C2 [Amitriptyline-e-2-NB590]
NanoBRET Fold Response (FZD4; tracer at 1μM): 0.97

COc1ccc2c(n1)c(CCNC(C)=O)cn2CCNC(=O)CCc1ccc2n1[B-](F)(F)[N+]1=C(c3ccc[nH]3)C=CC1=C2 [Azamelatonin-1-NB590]
NanoBRET Fold Response (BDKRB2; 0.1μM tracer): 1.00 | NanoBRET Fold Response (BDKRB2; 1μM tracer): 1.05 | NanoBRET Fold Response (FZD4; 0.1μM tracer): 0.91 | NanoBRET Fold Response (FZD4; 1μM tracer): 0.91

COc1ccc2[nH]c(-c3ccc(CNC(=O)CCOCCOCCOCCOCCNC(=O)CCc4ccc5n4[B-](F)(F)[N+]4=C(c6ccc[nH]6)C=CC4=C5)cc3)c(CCNC(C)=O)c2n1 [AzomelatoninICO9-2-NB590]
NanoBRET Fold Response (BDKRB2; 0.1μM tracer): 0.96 | NanoBRET Fold Response (BDKRB2; 1μM tracer): 0.93 | NanoBRET Fold Response (FZD4; 0.1μM tracer): 0.89 | NanoBRET Fold Response (FZD4; 1μM tracer): 1.08

O=C(CCOCCOCCOCCOCCNC(=O)CCc1ccc2n1[B-](F)(F)[N+]1=C(c3ccc[nH]3)C=CC1=C2)NCCCN1CCN(C2=Nc3cc(Cl)ccc3Nc3ccccc32)CC1 [Clozapine-a-2-NB590]
NanoBRET Fold Response (BDKRB2; BDKRB2, 0.1μM tracer): 1.02 | NanoBRET Fold Response (BDKRB2; BDKRB2, 1μM tracer): 1.13 | NanoBRET Fold Response (FZD4; FZD4, 0.1μM tracer): 1.20 | NanoBRET Fold Response (FZD4; FZD4, 1μM tracer): 0.95
